Laboratory results published in patent US20240423981A1, “TREATMENT OF HCM WITH PYRIMIDINEDIONE COMPOUNDS” (MyoKardia, Inc., priority 2017, published 2024).

Key:
[1] = test system: subjects with clinically stable HCM; assay: Study Compound 1-001 (MYK-461-001): SAD trial in HCM patients; format: in vivo, human; conditions: for LVOT Gradient Post-dose: upon provocation
Procedure: (§1) Three clinical studies have investigated the safety and tolerability of Compound 1 to date; conduct of 2 studies has completed and 1 study is ongoing. A double-blind, placebo-controlled, single ascending-dose study (SAD) (Compound 1-002) was conducted in healthy men. Subjects received single doses ranging from 1 mg to 48 mg. Conduct of an open-label sequential-group SAD study in subjects with clinically stable HCM (Compound 1-001) is also complete; single doses of up to 144 mg were administered. In addition, a double-blind, placebo-controlled, multiple ascending-dose (MAD) study (Compound 1-003) is being conducted in which healthy adult subjects have received multiple doses of Compound 1 up to 25 mg once daily (QD) for up to 28 days.
In Study MYK-461-001, single doses of up to 144 mg were administered to 15 subjects with HCM. […] In terms of causality assessment, there are no nonclinical or other clinical data to implicate Compound 1 in cardiac ion channel current modulation, or cardiac impulse generation or conduction. […] Other potential contributions to the event include chronic […] with metoprolol succinate 150 mg QD, and the observation that the subject inadvertently performed the Valsalva maneuver during the handgrip strength assessment immediately prior to the event.
LVOT obstruction was resolved in patients following a single dose of Compound 1, as shown in the results in Table 2. […] Each patient was administered single 96 mg dose of Compound 1. Both patients' gradients were resolved following dosing.

healthy adult subjects = assay: Study Compound 1-003: multiple ascending-dose (MAD) trial in healthy volunteers; format: in vivo, human
Procedure: as §1
In Study Compound 1-003, 4 cohorts of healthy adult subjects have been dosed, each scheduled to dose for 28 days. […] In cohort 3, 3 of 12 subjects who received blinded treatment (either Compound 1 12.5 mg or placebo QD) had diarrhea and/or abdominal cramps. One of these subjects was discontinued due to recurrence of diarrhea upon rechallenge, and the other 2 subjects were successfully restarted on study medication. The investigator considered these gastrointestinal AEs either mild or moderate in severity and likely related to study medication.
Dosing in cohort 4 was stopped on Day 25 by the investigator, because 5 of 12 subjects who received blinded treatment (either Compound 1 25 mg or placebo QD) achieved the predefined stopping criterion for dose ascension of ≥20% reduction in LVEF. All subjects remained asymptomatic.

[2] = Pre-clinical acute or chronic administration, haemodynamics; format: in vivo
[3] = Pharmacokinetics in Study Compound 1-002; format: in vivo; conditions: single oral doses, healthy men
Procedure: In Study Compound 1-002, single doses from 1 mg to 48 mg were administered as an oral suspension to healthy men. […] Single doses of ≥12 mg of Compound 1 were associated with detectable reductions in LV contractility from baseline as assessed by 3 independent echocardiographic measures (left ventricular ejection fraction [LVEF], LV fractional shortening (LVFS), and LVOT velocity time integral [VTI]). At the highest dose studied in healthy subjects (48 mg), mean reduction in LVEF at any time point was −6% relative to baseline.
Compound 1 concentrations were measured in human plasma using high pressure liquid chromatography (HPLC) coupled with tandem mass spectrometry (MS/MS). This method was used for Compound 1 bioanalysis in all clinical trials to date, and all clinical data has been collected using plasma. A brief description of the method follows.
Liquid-liquid extraction and HPLC/MS/MS was used to determine the concentration of Compound 1 in human plasma. An aliquot of the extract was injected onto an HPLC instrument that is coupled with a triple quadrupole mass spectrometer (Sciex API5500). […] The peak area of the product ion of Compound 1 was measured against the peak area of the product ion of the internal standard for determination of concentration.

healthy volunteers = assay: Adverse events in healthy volunteers of the Phase 1 trials; format: in vivo, human
Procedure: as §1

[4] = 12.5 mg cohort, 28-day treatment
[5] = 25 mg cohort treated for 25 days

Question: For `CC(C)n1c(=O)cc(N[C@@H](C)c2ccccc2)[nH]c1=O` [Compound 1, (S)-3-Isopropyl-6-((1-phenylethyl)amino) pyrimidine-2, 4(1H,3H)-dione], which Responders % ([1]; 48 mg single dose cohort) is on record?
Answer: Its Responders % is 50%.

Question: What about the Responders n ([1]; 48 mg single dose cohort) of the same molecule?
Answer: Its Responders n is 2/4.

Question: What about the Responders % ([1]; 96 mg single dose cohort) of the same molecule?
Answer: Its Responders % is 83%.

Question: What about the Responders n ([1]; 96 mg single dose cohort) of the same molecule?
Answer: The Responders n was 5/6.

Question: And the Responders % ([1]; 144 mg single dose cohort)?
Answer: The Responders % was 80%.

Question: And the Responders n ([1]; 144 mg single dose cohort)?
Answer: The Responders n was 4/5.

Question: What about the “LVOT gradients following Valsalva after dosing” value ([1]; 2 subjects, single 96 mg dose) of the same molecule?
Answer: The value was under 10 mm Hg.

Question: What about the “LVOT Gradient % Decrease” value ([1]; Patient 1, single 96 mg dose) of the same molecule?
Answer: The value was “(79%)”.

Question: And the “LVOT Gradient Post-dose” value ([1]; Patient 1, single 96 mg dose, pre-dose 42)?
Answer: The value was 9 mmHg.

Question: And the “LVOT Gradient % Decrease” value ([1]; Patient 2, single 96 mg dose)?
Answer: The value was “(82%)”.

Question: What about the “LVOT Gradient Post-dose” value ([1]; Patient 2, single 96 mg dose, pre-dose 28) of the same molecule?
Answer: Its value is 5 mmHg.

Question: What about the “proof of mechanism: LV contractility” value ([1]; all subjects with HCM, single doses 48-144 mg) of the same molecule?
Answer: The value was “reduced LV contractility by at least 1 of 3 independent echocardiographic measures”.

Question: And the “number of adverse events (AEs)” value ([1]; human, in vivo)?
Answer: The value was 35.

Question: And the “severity of adverse events” value ([1]; human, in vivo)?
Answer: The value was “all mild to moderate”.

Question: And the tolerability ([1]; single doses of up to 144 mg, 15 subjects with HCM)?
Answer: The tolerability was “well tolerated without deaths, withdrawals due to AEs, or dose-related treatment-emergent AEs, except for 1 of 5 subjects who received the 144 mg dose”.

Question: What about the “LVOT obstruction after a single dose” value ([1]; two subjects with LVOT pressure gradient, single 96 mg dose) of the same molecule?
Answer: Its value is “resolved”.

Question: What about the “PD evidence of reduced contractility” value (healthy adult subjects; 12.5 mg QD and 25 mg QD groups) of the same molecule?
Answer: Its value is “PD evidence of reduced contractility was apparent”.

Question: And the Responders % (healthy adult subjects; [4])?
Answer: Its Responders % is 30%.

Question: And the Responders n (healthy adult subjects; [4])?
Answer: Its Responders n is 3/10.

Question: And the Responders n (healthy adult subjects; 18.5 mg cohort, 28-day treatment)?
Answer: The Responders n was 10/10.

Question: What about the Responders % (healthy adult subjects; [5]) of the same molecule?
Answer: Its Responders % is 100%.

Question: And the Responders n (healthy adult subjects; [5])?
Answer: The Responders n was 10/10.

Question: And the Responders % (healthy adult subjects; 25 mg cohort, 28-day treatment)?
Answer: Its Responders % is 100%.

Question: And the “subjects with diarrhea and/or abdominal cramps” value (healthy adult subjects; cohort 3, blinded treatment (Compound 1 12.5 mg or placebo QD))?
Answer: The value was 3 of 12.

Question: What about the “gastrointestinal AEs” value (healthy adult subjects; cohort 4 (Compound 1 25 mg or placebo)) of the same molecule?
Answer: The value was “No gastrointestinal AEs were reported”.

Question: And the “subjects achieving stopping criterion of ≥20% reduction in LVEF” value (healthy adult subjects; cohort 4, blinded treatment (Compound 1 25 mg or placebo QD), dosing stopped on Day 25)?
Answer: Its value is 5 of 12.

Question: And the “AE severity and SAEs” value (healthy adult subjects; multiple doses up to 25 mg QD)?
Answer: Its value is “All AEs were mild or moderate in severity, and there were no SAEs”.

Question: What about the tolerability (healthy adult subjects; multiple doses up to 25 mg QD, healthy adults) of the same molecule?
Answer: Its tolerability is “well tolerated”.

Question: And the “myocardial contractility, LV end-diastolic dimensions, blood pressure” value ([2]; acute or chronic administration)?
Answer: The value was “decreased myocardial contractility and increased LV end-diastolic dimensions while preserving systemic arterial blood pressure and, LV end-diastolic pressure”.

Question: What about the “end-diastolic pressures and end-diastolic stiffness” value ([2]; versus acute effects of other negative inotropes) of the same molecule?
Answer: Its value is “preserves end-diastolic pressures as well as the estimated (linear) end-diastolic stiffness despite marked increases in preload (EDV)”.

Question: What about the half-life ([3]; male, human, plasma, read-out: mean elimination half-life (converted)) of the same molecule?
Answer: Its half-life is about 192 h.

Question: And the “pharmacokinetic (PK) profile” value [3]?
Answer: The value was “rapid absorption and subsequent distribution followed by a long elimination phase”.

Question: And the SAEs (healthy volunteers)?
Answer: Its SAEs is “No SAEs reported”.

Question: What about the “severity of adverse events” value (healthy volunteers) of the same molecule?
Answer: The value was “all mild to moderate”.

Question: What about the “number of AEs reported” value (healthy volunteers; in 33 subjects) of the same molecule?
Answer: Its value is 54.
